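These data come from cells grown in 96-well plates and exposed to compound for 48 hours at five concentrations. The concentration for full growth arrest is given as TGI.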
Assays:
Experiment in all cases: NCI tumour cell line growth inhibition, 48 h
[1] = system: DLD-1 colon
[2] = system: DMS 273 small cell lung
[3] = system: P388 leukemia
[4] = system: SN12K1 renal
[5] = system: XF 498 CNS
[6] = system: M19-MEL melanoma
[7] = system: RXF-631 renal

Row | Structure (SMILES) | TGI [1] [µM] | TGI [2] [µM] | TGI [3] [µM] | TGI [4] [µM] | TGI [5] [µM] | TGI [6] [µM] | TGI [7] [µM]
1 | COc1ccc(OCC(C)(C)O)cc1 | > 100 | > 100 | > 100 | > 100 | > 100 |  | 
2 | CC(c1ccccc1)C(O)S(=O)(=O)O (stereo not given) |  | > 100 |  |  | > 100 | > 100 | > 100
3 | COc1ccc2c(c1)C=C(C(C)(C)C)NS2(=O)=O | > 100 | > 100 |  |  |  | > 100 | > 100
4 | COc1ccc(NS(=O)(=O)c2ccc(N=C3C=C(Nc4ccc(S(=O)(=O)Nc5ccc(OC)nn5)cc4)C(=O)c4ccccc43)cc2)nn1 | 36.9 | 28.4 |  |  | 54.3 | 30.6 | 
5 | CCCCC(N)CSSCC(N)CCCC (stereo not given) | 60.3 | 45.6 |  |  | 34.9 | 56.9 | 
6 | COc1ccc2c(c1)c(=O)c1c(NCCCN(C)C)ccc3ncn2c31 | 17.8 | 15.5 |  |  | 18.9 | 24.8 | 
